“And” between values parts separate entries of the source, which are not always exact repeats. Equal values may be shown once. Each block holds one molecule with its values, some of them ahead of it.
Key:
FMND/CYP17A1 [1] = biological target: T1, FMND/CYP17A1 (Homo sapiens, UniProt P05093+P16435); format: binding; details: for spectral shift (binding mode): difference spectra, FMND/CYP17A1 fusion, FMN domain oxidized
T1 sequence (P16435+P05093 with tags, fused parts or gaps): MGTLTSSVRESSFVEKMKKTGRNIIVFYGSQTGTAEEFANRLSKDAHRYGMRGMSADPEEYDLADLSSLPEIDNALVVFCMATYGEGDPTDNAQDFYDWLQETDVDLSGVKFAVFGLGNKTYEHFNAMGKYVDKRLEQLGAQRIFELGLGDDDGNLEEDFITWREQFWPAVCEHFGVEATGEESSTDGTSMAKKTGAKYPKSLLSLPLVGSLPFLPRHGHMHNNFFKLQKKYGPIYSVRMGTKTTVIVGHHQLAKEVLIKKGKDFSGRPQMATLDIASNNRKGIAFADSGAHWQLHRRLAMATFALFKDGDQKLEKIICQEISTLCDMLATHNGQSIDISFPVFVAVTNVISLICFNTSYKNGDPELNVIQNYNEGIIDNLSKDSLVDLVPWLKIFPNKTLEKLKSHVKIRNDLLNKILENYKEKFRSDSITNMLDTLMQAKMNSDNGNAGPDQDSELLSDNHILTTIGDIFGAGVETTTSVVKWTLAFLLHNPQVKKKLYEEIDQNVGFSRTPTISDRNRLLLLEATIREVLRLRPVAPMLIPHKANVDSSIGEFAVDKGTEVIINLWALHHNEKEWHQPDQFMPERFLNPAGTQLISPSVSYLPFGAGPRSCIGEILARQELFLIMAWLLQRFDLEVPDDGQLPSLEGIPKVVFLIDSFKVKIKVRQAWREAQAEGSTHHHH

CYP17A1 = biological target: T2, CYP17A1 (Homo sapiens, UniProt P05093); assay: UV-visible spectral ligand binding assay, isolated CYP17A1; details: difference spectra
T2 sequence (P05093 with tags, fused parts or gaps): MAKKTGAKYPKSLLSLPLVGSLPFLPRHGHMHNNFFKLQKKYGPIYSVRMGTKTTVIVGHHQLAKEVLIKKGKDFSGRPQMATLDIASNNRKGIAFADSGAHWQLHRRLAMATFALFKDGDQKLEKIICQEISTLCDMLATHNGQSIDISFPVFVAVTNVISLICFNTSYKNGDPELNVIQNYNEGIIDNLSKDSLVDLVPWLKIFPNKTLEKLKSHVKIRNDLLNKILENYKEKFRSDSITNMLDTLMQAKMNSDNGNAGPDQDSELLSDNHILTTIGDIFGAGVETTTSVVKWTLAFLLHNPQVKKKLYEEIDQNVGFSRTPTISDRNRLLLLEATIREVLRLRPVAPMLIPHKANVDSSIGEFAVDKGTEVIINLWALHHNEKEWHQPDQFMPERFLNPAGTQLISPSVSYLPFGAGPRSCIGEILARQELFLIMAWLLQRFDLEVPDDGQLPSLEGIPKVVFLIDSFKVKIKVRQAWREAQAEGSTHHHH

FMND/CYP2D6 = format: binding, human; details: FMND/CYP2D6 compared with CYP2D6
CYP2A6 = biological target: T3, CYP2A6 (Homo sapiens, UniProt P11509); assay: UV-visible spectral ligand binding assay, isolated CYP2A6; details: difference spectra
T3 sequence (P11509 with tags, fused parts or gaps): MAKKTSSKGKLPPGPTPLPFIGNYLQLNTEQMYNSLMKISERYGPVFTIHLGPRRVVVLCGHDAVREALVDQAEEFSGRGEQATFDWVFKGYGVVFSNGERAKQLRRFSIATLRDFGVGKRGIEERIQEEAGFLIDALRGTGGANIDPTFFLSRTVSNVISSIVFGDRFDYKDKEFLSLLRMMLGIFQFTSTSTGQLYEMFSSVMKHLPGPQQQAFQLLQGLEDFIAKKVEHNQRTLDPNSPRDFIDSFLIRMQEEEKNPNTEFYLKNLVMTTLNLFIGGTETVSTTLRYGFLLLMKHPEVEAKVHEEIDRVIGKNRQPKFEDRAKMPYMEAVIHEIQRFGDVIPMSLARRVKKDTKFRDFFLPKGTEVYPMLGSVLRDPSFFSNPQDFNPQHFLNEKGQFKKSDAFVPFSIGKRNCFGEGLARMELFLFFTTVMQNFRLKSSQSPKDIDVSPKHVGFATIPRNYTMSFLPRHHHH

FMND/CYP2A6 = biological target: T4, FMND/CYP2A6 (Homo sapiens, UniProt P11509); format: binding
T4 sequence (P11509 with tags, fused parts or gaps): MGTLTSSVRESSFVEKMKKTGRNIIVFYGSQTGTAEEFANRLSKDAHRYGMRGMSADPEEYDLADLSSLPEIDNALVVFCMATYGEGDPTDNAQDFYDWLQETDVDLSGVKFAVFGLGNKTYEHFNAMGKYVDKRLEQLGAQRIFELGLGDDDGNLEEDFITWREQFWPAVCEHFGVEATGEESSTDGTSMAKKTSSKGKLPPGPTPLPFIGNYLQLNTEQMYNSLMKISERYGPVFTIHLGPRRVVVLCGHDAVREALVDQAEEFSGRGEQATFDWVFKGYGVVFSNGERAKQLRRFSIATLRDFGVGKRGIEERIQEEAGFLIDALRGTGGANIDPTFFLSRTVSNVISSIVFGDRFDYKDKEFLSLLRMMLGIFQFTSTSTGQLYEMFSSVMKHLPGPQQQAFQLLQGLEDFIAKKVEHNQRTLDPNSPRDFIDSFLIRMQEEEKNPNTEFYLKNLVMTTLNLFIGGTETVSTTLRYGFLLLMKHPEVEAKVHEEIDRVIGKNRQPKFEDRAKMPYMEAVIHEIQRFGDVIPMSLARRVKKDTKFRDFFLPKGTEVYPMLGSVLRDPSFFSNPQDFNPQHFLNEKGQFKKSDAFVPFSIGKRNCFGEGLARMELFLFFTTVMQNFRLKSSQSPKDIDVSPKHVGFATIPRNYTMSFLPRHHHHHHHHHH

FMND/CYP3A4 [2] = biological target: T5, FMND/CYP3A4 (Homo sapiens, UniProt P08684); details: FMND/CYP3A4 compared with CYP3A4
FMND/CYP3A4 [3] = biological target: T5, FMND/CYP3A4; format: biochemical; details: hydrocortisone metabolism to 6β-hydroxycortisol, cumene hydroperoxide, FMND/CYP3A4 vs CYP3A4
FMND/CYP17A1 [4] = biological target: T1, FMND/CYP17A1; format: biochemical; details: progesterone 17α-hydroxylation, cumene hydroperoxide
CYP21A2 = biological target: T6, CYP21A2 (Homo sapiens, UniProt P08686, R103K); assay: UV-visible spectral ligand binding assay, isolated CYP21A2; details: difference spectra
T6 sequence (P08686 with tags, fused parts or gaps R103K limits assumed): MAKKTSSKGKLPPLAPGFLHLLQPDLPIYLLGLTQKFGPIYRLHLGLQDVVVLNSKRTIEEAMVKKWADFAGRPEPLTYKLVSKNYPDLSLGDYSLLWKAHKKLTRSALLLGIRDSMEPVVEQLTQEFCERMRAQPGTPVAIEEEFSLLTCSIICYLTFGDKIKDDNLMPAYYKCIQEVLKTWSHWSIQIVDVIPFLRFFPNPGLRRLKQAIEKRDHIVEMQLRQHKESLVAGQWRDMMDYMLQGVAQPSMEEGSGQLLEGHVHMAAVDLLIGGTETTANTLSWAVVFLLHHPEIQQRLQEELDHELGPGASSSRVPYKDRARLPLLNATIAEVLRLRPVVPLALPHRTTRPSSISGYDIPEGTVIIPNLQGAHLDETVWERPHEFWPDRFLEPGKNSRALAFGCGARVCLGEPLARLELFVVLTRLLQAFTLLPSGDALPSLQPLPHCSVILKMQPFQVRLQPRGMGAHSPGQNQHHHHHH

FMND/CYP21A2 [5] = biological target: T7, FMND/CYP21A2 (Homo sapiens, UniProt P08686+P16435, R103K); format: binding
T7 sequence (P16435+P08686 with tags, fused parts or gaps P08686:R103K): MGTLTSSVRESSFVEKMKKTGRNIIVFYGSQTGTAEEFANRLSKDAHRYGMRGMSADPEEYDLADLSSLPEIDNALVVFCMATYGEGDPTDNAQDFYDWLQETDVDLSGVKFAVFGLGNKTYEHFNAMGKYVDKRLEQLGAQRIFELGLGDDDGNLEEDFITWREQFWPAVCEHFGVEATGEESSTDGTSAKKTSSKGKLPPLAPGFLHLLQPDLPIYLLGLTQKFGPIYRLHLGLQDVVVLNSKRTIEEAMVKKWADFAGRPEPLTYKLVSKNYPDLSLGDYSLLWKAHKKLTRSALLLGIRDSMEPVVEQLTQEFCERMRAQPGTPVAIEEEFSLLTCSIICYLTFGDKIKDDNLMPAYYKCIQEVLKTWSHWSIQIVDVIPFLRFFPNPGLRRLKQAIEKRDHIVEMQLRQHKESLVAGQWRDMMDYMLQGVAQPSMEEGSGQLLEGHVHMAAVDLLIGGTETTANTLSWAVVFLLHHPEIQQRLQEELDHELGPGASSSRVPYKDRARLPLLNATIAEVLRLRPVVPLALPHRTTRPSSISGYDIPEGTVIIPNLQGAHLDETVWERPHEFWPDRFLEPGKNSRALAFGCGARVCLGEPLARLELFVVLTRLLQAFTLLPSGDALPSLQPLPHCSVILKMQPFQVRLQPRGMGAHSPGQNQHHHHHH

FMND/CYP21A2 [6] = biological target: T7, FMND/CYP21A2; format: biochemical; details: progesterone 21-hydroxylation, cumene hydroperoxide, FMND/CYP21A2 vs CYP21A2
[7] = FMND/CYP17A1 compared with CYP17A1
[8] = FMND/CYP2A6 compared with CYP2A6
[9] = FMND/CYP21A2 compared with CYP21A2

effect of FMN domain fusion on binding efficiency, in words (FMND/CYP17A1 [1]; [7]): largely unchanged
effect of FMN domain fusion on saturation (ΔAmax), in words (FMND/CYP17A1 [1]; [7]): increased
spectral shift (binding mode) (FMND/CYP17A1 [1]): type I
spectral shift (binding mode) (CYP17A1): type I
SMILES: CC(=O)[C@H]1CC[C@H]2[C@@H]3CC=C4C[C@@H](O)CC[C@]4(C)[C@H]3CC[C@]12C [pregnenolone]

increase in affinity by FMN domain fusion (FMND/CYP2D6): 37%
increase in ΔAmax/Kd binding efficiency by FMN domain fusion (FMND/CYP2D6): 32%
reduction in total binding at saturation by FMN domain fusion (FMND/CYP2D6): 17%
spectral shift (binding mode) (CYP2A6): type II
change in the affinity by FMN domain fusion, in words (FMND/CYP2A6; [8]): no change
decrease in total binding (ΔAmax) by FMN domain fusion (FMND/CYP2A6; [8]): 30%
spectral shift (binding mode) (FMND/CYP2A6; difference spectra, FMND/CYP2A6 fusion, FMN domain oxidized): type II
SMILES: CC[C@@H]1C(=O)OC[C@@H]1Cc1cncn1C [pilocarpine]

reduction in the Kd value by FMND fusion (FMND/CYP3A4 [2]): 30%
reduction in total binding / final saturation (ΔAmax) by FMND fusion (FMND/CYP3A4 [2]): 33%
decrease in Km by addition of the FMN domain (FMND/CYP3A4 [3]): ~30%
decrease in kcat by addition of the FMN domain (FMND/CYP3A4 [3]): ~21%
SMILES: C[C@]12CCC(=O)C=C1CC[C@@H]1[C@@H]2[C@@H](O)C[C@@]2(C)[C@H]1CC[C@]2(O)C(=O)CO [hydrocortisone]

steady-state kinetics, saturation (FMND/CYP17A1 [4]; CYP17A1 and FMND/CYP17A1): saturation could not be reached
trend of the FMN domain effect on kcat and Km, in words (FMND/CYP17A1 [4]; FMND/CYP17A1 vs CYP17A1, poorly defined): increase kcat as well as Km
spectral shift (binding mode) (CYP21A2): type I
increase in affinity by FMN domain fusion (FMND/CYP17A1 [1]; [7]): 17%
increase in overall binding efficiency (ΔAmax/Kd) by FMN domain fusion (FMND/CYP17A1 [1]; [7]): 38%
spectral shift (binding mode) (FMND/CYP17A1 [1]): type I
decrease in total / maximal absorbance change (ΔAmax) by FMN domain fusion (FMND/CYP21A2 [5]; [9]): 31% and 30%
effect of FMN domain fusion on the affinity, in words (FMND/CYP21A2 [5]; [9]): without substantially altering
spectral shift (binding mode) (FMND/CYP21A2 [5]; difference spectra, FMND/CYP21A2 fusion, FMN domain oxidized): type I
effect on catalytic efficiency, in words (FMND/CYP21A2 [6]): unchanged
increase in kcat by FMN domain fusion (FMND/CYP21A2 [6]): 17%
spectral shift (binding mode) (CYP17A1): type I
SMILES: CC(=O)[C@H]1CC[C@H]2[C@@H]3CCC4=CC(=O)CC[C@]4(C)[C@H]3CC[C@]12C [progesterone]
